What follows are molecules tested on NALL-1 (assay: selective drug sensitivity score (sDSS, relative to normal bone marrow) (sDSS (score)); higher = more potent and effective on the cell line relative to normal bone marrow cells). Conditions: 72 h.
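Note: ALL cell lines in 384-well plates, five doses spanning 10,000-fold, each plate scaled between vehicle and 100 µmol/L benzalkonium chloride controls, sDSS an adapted area-under-curve metric.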

Compound | selective drug sensitivity score
Cc1cc(C(C)Nc2ccccc2)c2nc(N3CCOCC3)cc(=O)n2c1 (stereo not given) [TGX-221] (top concentration 10000 nM) | -0.44
Cc1nc(-c2cn3c(n2)-c2ccc(-c4cnn(C(C)(C)C(N)=O)c4)cc2OCC3)n(C(C)C)n1 [Taselisib] (top concentration 1000 nM) | -1.7
O=C(Nc1cccc(Nc2ncc(Br)c(NCCc3cnc[nH]3)n2)c1)N1CCCC1 [BX-912] (top concentration 10000 nM) | 7.36
NS(=O)(=O)OC[C@@H]1C[C@@H](n2ccc3c(N[C@H]4CCc5ccccc54)ncnc32)C[C@@H]1O [Pevonedistat] (top concentration 10000 nM) | 9.4
N#Cc1ccc(COC[C@H]2O[C@@H](n3c(NCc4ccc(Cl)c(Cl)c4)nc4c(N)ncnc43)[C@H](O)[C@@H]2O)cc1 (top concentration 10000 nM) | -0.48
C=C1C[C@@H]2[C@H](CC[C@]3(C)C(=O)CC[C@@H]23)[C@@]2(C)C=CC(=O)C=C12 [Exemestane] (top concentration 10000 nM) | -1.9
NCC(=O)Nc1ccc(-n2nc(C(F)(F)F)cc2-c2ccc3c(ccc4ccccc43)c2)cc1 (top concentration 25000 nM) | 5

The molecules below were run on SUP-B15 in the same assay as above. Conditions: 72 h.

Compound | selective drug sensitivity score
Cc1cc(C(C)Nc2ccccc2)c2nc(N3CCOCC3)cc(=O)n2c1 (stereo not given) [TGX-221] (top concentration 10000 nM) | 0.36
Cc1nc(-c2cn3c(n2)-c2ccc(-c4cnn(C(C)(C)C(N)=O)c4)cc2OCC3)n(C(C)C)n1 [Taselisib] (top concentration 1000 nM) | -1.4
O=C(Nc1cccc(Nc2ncc(Br)c(NCCc3cnc[nH]3)n2)c1)N1CCCC1 [BX-912] (top concentration 10000 nM) | 11.9
NS(=O)(=O)OC[C@@H]1C[C@@H](n2ccc3c(N[C@H]4CCc5ccccc54)ncnc32)C[C@@H]1O [Pevonedistat] (top concentration 10000 nM) | 15.2
N#Cc1ccc(COC[C@H]2O[C@@H](n3c(NCc4ccc(Cl)c(Cl)c4)nc4c(N)ncnc43)[C@H](O)[C@@H]2O)cc1 (top concentration 10000 nM) | 5.72
C=C1C[C@@H]2[C@H](CC[C@]3(C)C(=O)CC[C@@H]23)[C@@]2(C)C=CC(=O)C=C12 [Exemestane] (top concentration 10000 nM) | 1.1
NCC(=O)Nc1ccc(-n2nc(C(F)(F)F)cc2-c2ccc3c(ccc4ccccc43)c2)cc1 (top concentration 25000 nM) | 7.5

What follows are molecules tested on 697 in the same assay as above. Conditions: 72 h.

Compound | selective drug sensitivity score
Cc1cc(C(C)Nc2ccccc2)c2nc(N3CCOCC3)cc(=O)n2c1 (stereo not given) [TGX-221] (top concentration 10000 nM) | 0.16
Cc1nc(-c2cn3c(n2)-c2ccc(-c4cnn(C(C)(C)C(N)=O)c4)cc2OCC3)n(C(C)C)n1 [Taselisib] (top concentration 1000 nM) | 3.9
O=C(Nc1cccc(Nc2ncc(Br)c(NCCc3cnc[nH]3)n2)c1)N1CCCC1 [BX-912] (top concentration 10000 nM) | 10.4
NS(=O)(=O)OC[C@@H]1C[C@@H](n2ccc3c(N[C@H]4CCc5ccccc54)ncnc32)C[C@@H]1O [Pevonedistat] (top concentration 10000 nM) | 13.1
N#Cc1ccc(COC[C@H]2O[C@@H](n3c(NCc4ccc(Cl)c(Cl)c4)nc4c(N)ncnc43)[C@H](O)[C@@H]2O)cc1 (top concentration 10000 nM) | 4.72
C=C1C[C@@H]2[C@H](CC[C@]3(C)C(=O)CC[C@@H]23)[C@@]2(C)C=CC(=O)C=C12 [Exemestane] (top concentration 10000 nM) | -0.9
NCC(=O)Nc1ccc(-n2nc(C(F)(F)F)cc2-c2ccc3c(ccc4ccccc43)c2)cc1 (top concentration 25000 nM) | 10.8

These molecules were tested on JURKAT in the same assay as above. Conditions: 72 h.

Compound | selective drug sensitivity score
Cc1cc(C(C)Nc2ccccc2)c2nc(N3CCOCC3)cc(=O)n2c1 (stereo not given) [TGX-221] (top concentration 10000 nM) | -0.74
Cc1nc(-c2cn3c(n2)-c2ccc(-c4cnn(C(C)(C)C(N)=O)c4)cc2OCC3)n(C(C)C)n1 [Taselisib] (top concentration 1000 nM) | -2.6
O=C(Nc1cccc(Nc2ncc(Br)c(NCCc3cnc[nH]3)n2)c1)N1CCCC1 [BX-912] (top concentration 10000 nM) | -1.34
NS(=O)(=O)OC[C@@H]1C[C@@H](n2ccc3c(N[C@H]4CCc5ccccc54)ncnc32)C[C@@H]1O [Pevonedistat] (top concentration 10000 nM) | 12.6
N#Cc1ccc(COC[C@H]2O[C@@H](n3c(NCc4ccc(Cl)c(Cl)c4)nc4c(N)ncnc43)[C@H](O)[C@@H]2O)cc1 (top concentration 10000 nM) | 4.72
C=C1C[C@@H]2[C@H](CC[C@]3(C)C(=O)CC[C@@H]23)[C@@]2(C)C=CC(=O)C=C12 [Exemestane] (top concentration 10000 nM) | -1.4
NCC(=O)Nc1ccc(-n2nc(C(F)(F)F)cc2-c2ccc3c(ccc4ccccc43)c2)cc1 (top concentration 25000 nM) | 15.3

These molecules were tested on KARPAS-45 in the same assay as above. Conditions: 72 h.

Compound | selective drug sensitivity score
Cc1cc(C(C)Nc2ccccc2)c2nc(N3CCOCC3)cc(=O)n2c1 (stereo not given) [TGX-221] (top concentration 10000 nM) | 1.46
Cc1nc(-c2cn3c(n2)-c2ccc(-c4cnn(C(C)(C)C(N)=O)c4)cc2OCC3)n(C(C)C)n1 [Taselisib] (top concentration 1000 nM) | 2
O=C(Nc1cccc(Nc2ncc(Br)c(NCCc3cnc[nH]3)n2)c1)N1CCCC1 [BX-912] (top concentration 10000 nM) | 3.56
NS(=O)(=O)OC[C@@H]1C[C@@H](n2ccc3c(N[C@H]4CCc5ccccc54)ncnc32)C[C@@H]1O [Pevonedistat] (top concentration 10000 nM) | 12.1
N#Cc1ccc(COC[C@H]2O[C@@H](n3c(NCc4ccc(Cl)c(Cl)c4)nc4c(N)ncnc43)[C@H](O)[C@@H]2O)cc1 (top concentration 10000 nM) | 7.82
C=C1C[C@@H]2[C@H](CC[C@]3(C)C(=O)CC[C@@H]23)[C@@]2(C)C=CC(=O)C=C12 [Exemestane] (top concentration 10000 nM) | -1.2
NCC(=O)Nc1ccc(-n2nc(C(F)(F)F)cc2-c2ccc3c(ccc4ccccc43)c2)cc1 (top concentration 25000 nM) | 6.9

Each molecule was assayed on MHH-CALL-4 in the same assay as above. Conditions: 72 h.

Compound | selective drug sensitivity score
Cc1cc(C(C)Nc2ccccc2)c2nc(N3CCOCC3)cc(=O)n2c1 (stereo not given) [TGX-221] (top concentration 10000 nM) | -1.44
Cc1nc(-c2cn3c(n2)-c2ccc(-c4cnn(C(C)(C)C(N)=O)c4)cc2OCC3)n(C(C)C)n1 [Taselisib] (top concentration 1000 nM) | 7.9
O=C(Nc1cccc(Nc2ncc(Br)c(NCCc3cnc[nH]3)n2)c1)N1CCCC1 [BX-912] (top concentration 10000 nM) | 3.06
NS(=O)(=O)OC[C@@H]1C[C@@H](n2ccc3c(N[C@H]4CCc5ccccc54)ncnc32)C[C@@H]1O [Pevonedistat] (top concentration 10000 nM) | 11.5
N#Cc1ccc(COC[C@H]2O[C@@H](n3c(NCc4ccc(Cl)c(Cl)c4)nc4c(N)ncnc43)[C@H](O)[C@@H]2O)cc1 (top concentration 10000 nM) | -0.68
C=C1C[C@@H]2[C@H](CC[C@]3(C)C(=O)CC[C@@H]23)[C@@]2(C)C=CC(=O)C=C12 [Exemestane] (top concentration 10000 nM) | -1.9
NCC(=O)Nc1ccc(-n2nc(C(F)(F)F)cc2-c2ccc3c(ccc4ccccc43)c2)cc1 (top concentration 25000 nM) | 2.9

These molecules were tested on COG-LL-332h in the same assay as above. Conditions: 72 h.

Compound | selective drug sensitivity score
Cc1cc(C(C)Nc2ccccc2)c2nc(N3CCOCC3)cc(=O)n2c1 (stereo not given) [TGX-221] (top concentration 10000 nM) | -1.54
Cc1nc(-c2cn3c(n2)-c2ccc(-c4cnn(C(C)(C)C(N)=O)c4)cc2OCC3)n(C(C)C)n1 [Taselisib] (top concentration 1000 nM) | 0.7
O=C(Nc1cccc(Nc2ncc(Br)c(NCCc3cnc[nH]3)n2)c1)N1CCCC1 [BX-912] (top concentration 10000 nM) | 7.56
NS(=O)(=O)OC[C@@H]1C[C@@H](n2ccc3c(N[C@H]4CCc5ccccc54)ncnc32)C[C@@H]1O [Pevonedistat] (top concentration 10000 nM) | 20.2
N#Cc1ccc(COC[C@H]2O[C@@H](n3c(NCc4ccc(Cl)c(Cl)c4)nc4c(N)ncnc43)[C@H](O)[C@@H]2O)cc1 (top concentration 10000 nM) | 10.4
C=C1C[C@@H]2[C@H](CC[C@]3(C)C(=O)CC[C@@H]23)[C@@]2(C)C=CC(=O)C=C12 [Exemestane] (top concentration 10000 nM) | 2.4
NCC(=O)Nc1ccc(-n2nc(C(F)(F)F)cc2-c2ccc3c(ccc4ccccc43)c2)cc1 (top concentration 25000 nM) | 14.3

Each molecule was assayed on MN-60 in the same assay as above. Conditions: 72 h.

Compound | selective drug sensitivity score
Cc1cc(C(C)Nc2ccccc2)c2nc(N3CCOCC3)cc(=O)n2c1 (stereo not given) [TGX-221] (top concentration 10000 nM) | -1.64
Cc1nc(-c2cn3c(n2)-c2ccc(-c4cnn(C(C)(C)C(N)=O)c4)cc2OCC3)n(C(C)C)n1 [Taselisib] (top concentration 1000 nM) | -0.4
O=C(Nc1cccc(Nc2ncc(Br)c(NCCc3cnc[nH]3)n2)c1)N1CCCC1 [BX-912] (top concentration 10000 nM) | -1.44
NS(=O)(=O)OC[C@@H]1C[C@@H](n2ccc3c(N[C@H]4CCc5ccccc54)ncnc32)C[C@@H]1O [Pevonedistat] (top concentration 10000 nM) | 6.5
N#Cc1ccc(COC[C@H]2O[C@@H](n3c(NCc4ccc(Cl)c(Cl)c4)nc4c(N)ncnc43)[C@H](O)[C@@H]2O)cc1 (top concentration 10000 nM) | 2.12
C=C1C[C@@H]2[C@H](CC[C@]3(C)C(=O)CC[C@@H]23)[C@@]2(C)C=CC(=O)C=C12 [Exemestane] (top concentration 10000 nM) | -1.9
NCC(=O)Nc1ccc(-n2nc(C(F)(F)F)cc2-c2ccc3c(ccc4ccccc43)c2)cc1 (top concentration 25000 nM) | 18.9

These molecules were tested on CCRF-HSB2 in the same assay as above. Conditions: 72 h.

Compound | selective drug sensitivity score
Cc1cc(C(C)Nc2ccccc2)c2nc(N3CCOCC3)cc(=O)n2c1 (stereo not given) [TGX-221] (top concentration 10000 nM) | 2.36
Cc1nc(-c2cn3c(n2)-c2ccc(-c4cnn(C(C)(C)C(N)=O)c4)cc2OCC3)n(C(C)C)n1 [Taselisib] (top concentration 1000 nM) | 2.3
O=C(Nc1cccc(Nc2ncc(Br)c(NCCc3cnc[nH]3)n2)c1)N1CCCC1 [BX-912] (top concentration 10000 nM) | 9.66
NS(=O)(=O)OC[C@@H]1C[C@@H](n2ccc3c(N[C@H]4CCc5ccccc54)ncnc32)C[C@@H]1O [Pevonedistat] (top concentration 10000 nM) | 16.3
N#Cc1ccc(COC[C@H]2O[C@@H](n3c(NCc4ccc(Cl)c(Cl)c4)nc4c(N)ncnc43)[C@H](O)[C@@H]2O)cc1 (top concentration 10000 nM) | 9.92
C=C1C[C@@H]2[C@H](CC[C@]3(C)C(=O)CC[C@@H]23)[C@@]2(C)C=CC(=O)C=C12 [Exemestane] (top concentration 10000 nM) | -1
NCC(=O)Nc1ccc(-n2nc(C(F)(F)F)cc2-c2ccc3c(ccc4ccccc43)c2)cc1 (top concentration 25000 nM) | 16.4

These molecules were tested on P12-ICHIKAWA in the same assay as above. Conditions: 72 h.

Compound | selective drug sensitivity score
Cc1cc(C(C)Nc2ccccc2)c2nc(N3CCOCC3)cc(=O)n2c1 (stereo not given) [TGX-221] (top concentration 10000 nM) | -1.64
Cc1nc(-c2cn3c(n2)-c2ccc(-c4cnn(C(C)(C)C(N)=O)c4)cc2OCC3)n(C(C)C)n1 [Taselisib] (top concentration 1000 nM) | -0.3
O=C(Nc1cccc(Nc2ncc(Br)c(NCCc3cnc[nH]3)n2)c1)N1CCCC1 [BX-912] (top concentration 10000 nM) | 10.2
NS(=O)(=O)OC[C@@H]1C[C@@H](n2ccc3c(N[C@H]4CCc5ccccc54)ncnc32)C[C@@H]1O [Pevonedistat] (top concentration 10000 nM) | 16.7
N#Cc1ccc(COC[C@H]2O[C@@H](n3c(NCc4ccc(Cl)c(Cl)c4)nc4c(N)ncnc43)[C@H](O)[C@@H]2O)cc1 (top concentration 10000 nM) | 7.22
C=C1C[C@@H]2[C@H](CC[C@]3(C)C(=O)CC[C@@H]23)[C@@]2(C)C=CC(=O)C=C12 [Exemestane] (top concentration 10000 nM) | -1.9
NCC(=O)Nc1ccc(-n2nc(C(F)(F)F)cc2-c2ccc3c(ccc4ccccc43)c2)cc1 (top concentration 25000 nM) | 16.7
